As a reminder, the ED50 is the midpoint of the dose-response relation.

Some results are limits rather than exact numbers.

Data set [1] relates to Cox standard strain albino male mice (extensor tonic convulsions). The data set is described as follows: electroshock induced convulsion inhibition assay (E.S.). The conditions noted are these: for ED50: Mus musculus, po, 1 h, by gavage, 60 minutes before 0.1 second, 50 milliampere corneal electroshock, inhibition of extensor tonic convulsions in one half of mice. It is filed as in vivo. The method, then:
(§1) In the electroshock induced convulsion inhibition assay (E.S.), the compound to be tested was dissolved in water (5%--sufficient hydrochloric acid was added for those compounds which were not isolated as a salt in order to effect dissolution) and administered by gavage to each of three Cox standard strain albino male mice (18-24 g.) at the dose level being investigated. Sixty minutes after compound administration, the mice were subjected to a 0.1 second, 50 milliampere electroshock through corneal electrodes. The animals were examined and evaluated immediately after the electroshock for the occurrence of clonic, flexor tonic, or extensor tonic convulsions, or death and the ED50 was determined for each compound as the dose which inhibited the occurrence of extensor tonic convulsions in one half of the animals immediately after the electroshock. For comparison, 18 milliamperes was usually sufficient to produce extensor tonic convulsions in about half of the control animals; at 50 milliamperes, almost all control animals (receiving vehicle only) died.

A further data set can be described thus: in vivo. Also on record: species or system mice. The conditions noted are these: mouse, po. The method, then:
(§2) The compounds were also evaluated for determining toxic potential. In determining toxic potential as manifested by neurological deficit, ataxia, or sedation, the "horizontal screen" (H.S.) was employed. This test is well accepted as a measure of impaired motor function in mice. The methodology was identical to that taught by Coughenour, et al., Pharmacology, Biochemistry and Behavior, 6, 351 (1977). For each compound, the ED50 was determined as the dose which caused one half of the animals to fail to reach the top of the screen. The compounds were administered to the mice in the same manner as described above for the electroshock assay 60 minutes before they were tested in the horizontal screen assay.

The nature of data set [2]: protective index (P.I.), ratio of horizontal screen ED50 over electroshock ED50. It is filed as in vivo, mice. The settings on record: mouse, in vivo, po; mice, gavage; read-out: Protective Index (H.S. ED50 /E.S. ED50). How it is done: as §1, §2
(§3) From the above two test systems, the protective index (P.I.) can be calculated as the ratio of the horizontal screen ED50 over the ED50 of the electroshock assay. Thus, a large P.I. is indicative of a broader therapeutic range. A large P.I. thus provides a wide margin of safety allowing greater flexibility in treating epilepsy and other convulsive disorders.

In a further data set the test system is mice. The description is as above. It is filed as in vivo. The conditions noted are these: enantiomers compared with each other or the racemate. How it is done: as §1, §2, §3
Data set [3] relates to maximal electroshock seizure. The conditions noted are these: racemic form; reported in U.S. Pat. No. 4,379,165; cited from earlier work.
For a further data set, the system named is seizures in man. The conditions noted are these: cited from earlier work.

Consider `C[C@@H](NC(=O)c1ccc(N)cc1)c1ccccc1` [(R), (R)-4-amino-N-(1-phenylethyl)benzamide], for which, in data set [1], the ED50 is 17.8 mg/kg. Besides, the TD50 at 1 h in “in vivo” is 480 mg/kg. Besides, in data set [2], the selectivity ratio at 1 h turned out to be 27. In the data set with mice, the “protective index (in words)” value is “increased protective index ratio”.

In data set [1], `CC(NC(=O)c1ccc(N)cc1)c1ccccc1` (racemic) [(R,S), (R,S)-4-amino-N-(1-phenylethyl)benzamide] gave an ED50 of 12.5 mg/kg. The compound further returned a TD50 at 1 h in the data set “in vivo” of 105 mg/kg. Moreover, in data set [2], the selectivity ratio at 1 h turned out to be 8.4. For the same compound, in data set [3], the “protective index (P.I.), TD50 (Rotorod) to ED50 (maximal electroshock seizure)” value is on record as 9.48.

Regarding `O=C1NC(=O)C(c2ccccc2)(c2ccccc2)N1` [phenytoin], the “plasma level at which seizures are controlled” value in the data set with seizures in man (Gilman, Goodman, and Gilman, 6th Ed.) is at least 10 µg/mL. For the same compound, in the data set with seizures in man, the “plasma level at which ataxia is obvious” value was 30 µg/mL, the “plasma level at which lethargy is apparent” value is listed as “about 40 mcg./ml” and the “plasma level at which nystagmus is seen” value is “around 20 mcg./ml”.

`C[C@H](NC(=O)c1ccc(N)cc1)c1ccccc1` [(S), (S)-4-amino-N-(1-phenylethyl)benzamide]: the “anticonvulsant potency (in words)” value in data set [1] ((S)-isomer compared with (R)-isomer and racemate) is recorded as “more potent as an anticonvulsant agent than either the (R)-isomer or the racemate”. In addition, the ED50 in data set [1] stood at 10 mg/kg. The TD50 at 1 h in “in vivo” amounted to 141 mg/kg. In addition, the selectivity ratio at 1 h in data set [2] worked out at 14.1.

The values are drawn from US4629740A, “Anticonvulsant agents” (Eli Lilly and Company, priority 1984, dated 1986).
